ChEMBL document CHEMBL1140269, “Amino-substituted heterocycles as isosteres of trans-cinnamides: design and synthesis of heterocyclic biaryl sulfides as potent antagonists of LFA-1/ICAM-1 binding” (Bioorg Med Chem Lett, 2005)
Values joined by “and” are separate entries in the source; they are usually repeats but may differ in a detail not shown here. Identical values can stand only once.

How the values were obtained:
[1] = molecular target: T1, Intercellular adhesion molecule (ICAM-1), Integrin alpha-L/beta-2 (Homo sapiens, UniProt P05107+P20701); assay: Inhibitory concentration against integrin LFA-1/ICAM-1 binding complex; format: protein-complex assay
T1 sequence (P20701 whole entry): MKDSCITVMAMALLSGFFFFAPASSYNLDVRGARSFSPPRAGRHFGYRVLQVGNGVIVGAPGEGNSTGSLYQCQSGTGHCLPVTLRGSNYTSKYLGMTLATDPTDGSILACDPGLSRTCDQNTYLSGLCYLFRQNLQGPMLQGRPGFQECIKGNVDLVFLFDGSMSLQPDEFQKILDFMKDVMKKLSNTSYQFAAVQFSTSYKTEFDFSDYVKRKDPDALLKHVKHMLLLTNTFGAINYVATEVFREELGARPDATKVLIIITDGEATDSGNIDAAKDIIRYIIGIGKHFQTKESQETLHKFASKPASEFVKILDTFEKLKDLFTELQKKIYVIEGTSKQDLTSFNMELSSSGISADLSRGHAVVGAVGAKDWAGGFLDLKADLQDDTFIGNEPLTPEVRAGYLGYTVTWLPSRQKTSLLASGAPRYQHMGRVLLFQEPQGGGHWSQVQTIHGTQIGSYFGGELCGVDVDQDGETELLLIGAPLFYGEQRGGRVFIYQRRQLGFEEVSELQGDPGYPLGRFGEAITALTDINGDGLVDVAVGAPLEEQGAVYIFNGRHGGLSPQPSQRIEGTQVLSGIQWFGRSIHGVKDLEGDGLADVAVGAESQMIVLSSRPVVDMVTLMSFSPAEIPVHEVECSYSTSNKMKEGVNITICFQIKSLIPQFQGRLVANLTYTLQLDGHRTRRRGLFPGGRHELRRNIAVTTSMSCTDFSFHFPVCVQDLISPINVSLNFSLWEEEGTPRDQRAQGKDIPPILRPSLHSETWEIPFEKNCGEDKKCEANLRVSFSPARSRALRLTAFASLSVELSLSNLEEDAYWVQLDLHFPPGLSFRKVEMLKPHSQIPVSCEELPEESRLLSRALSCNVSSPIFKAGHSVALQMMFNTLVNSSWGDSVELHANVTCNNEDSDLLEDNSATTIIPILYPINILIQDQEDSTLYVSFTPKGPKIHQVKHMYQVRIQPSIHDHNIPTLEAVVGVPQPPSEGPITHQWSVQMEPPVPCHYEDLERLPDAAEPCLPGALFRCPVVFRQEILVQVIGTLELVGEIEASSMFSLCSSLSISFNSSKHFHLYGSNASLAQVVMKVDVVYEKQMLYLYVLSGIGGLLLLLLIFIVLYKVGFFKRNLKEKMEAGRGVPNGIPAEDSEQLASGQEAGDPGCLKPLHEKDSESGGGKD
T1 sequence (P05362 whole entry, further chain): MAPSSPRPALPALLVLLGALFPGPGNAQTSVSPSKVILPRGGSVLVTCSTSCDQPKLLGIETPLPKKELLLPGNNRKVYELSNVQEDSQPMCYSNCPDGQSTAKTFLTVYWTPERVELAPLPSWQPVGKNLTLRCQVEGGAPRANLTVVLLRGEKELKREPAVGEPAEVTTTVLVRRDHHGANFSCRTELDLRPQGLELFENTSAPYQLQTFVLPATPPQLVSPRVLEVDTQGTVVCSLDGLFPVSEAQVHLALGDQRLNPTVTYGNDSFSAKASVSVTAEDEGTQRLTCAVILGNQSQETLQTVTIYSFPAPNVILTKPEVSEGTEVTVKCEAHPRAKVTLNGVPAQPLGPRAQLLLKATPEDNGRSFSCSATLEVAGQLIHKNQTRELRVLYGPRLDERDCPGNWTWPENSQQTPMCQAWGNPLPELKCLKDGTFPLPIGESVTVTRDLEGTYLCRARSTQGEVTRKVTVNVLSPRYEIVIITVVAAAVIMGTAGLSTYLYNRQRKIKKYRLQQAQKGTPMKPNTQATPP
T1 sequence (P05107 whole entry): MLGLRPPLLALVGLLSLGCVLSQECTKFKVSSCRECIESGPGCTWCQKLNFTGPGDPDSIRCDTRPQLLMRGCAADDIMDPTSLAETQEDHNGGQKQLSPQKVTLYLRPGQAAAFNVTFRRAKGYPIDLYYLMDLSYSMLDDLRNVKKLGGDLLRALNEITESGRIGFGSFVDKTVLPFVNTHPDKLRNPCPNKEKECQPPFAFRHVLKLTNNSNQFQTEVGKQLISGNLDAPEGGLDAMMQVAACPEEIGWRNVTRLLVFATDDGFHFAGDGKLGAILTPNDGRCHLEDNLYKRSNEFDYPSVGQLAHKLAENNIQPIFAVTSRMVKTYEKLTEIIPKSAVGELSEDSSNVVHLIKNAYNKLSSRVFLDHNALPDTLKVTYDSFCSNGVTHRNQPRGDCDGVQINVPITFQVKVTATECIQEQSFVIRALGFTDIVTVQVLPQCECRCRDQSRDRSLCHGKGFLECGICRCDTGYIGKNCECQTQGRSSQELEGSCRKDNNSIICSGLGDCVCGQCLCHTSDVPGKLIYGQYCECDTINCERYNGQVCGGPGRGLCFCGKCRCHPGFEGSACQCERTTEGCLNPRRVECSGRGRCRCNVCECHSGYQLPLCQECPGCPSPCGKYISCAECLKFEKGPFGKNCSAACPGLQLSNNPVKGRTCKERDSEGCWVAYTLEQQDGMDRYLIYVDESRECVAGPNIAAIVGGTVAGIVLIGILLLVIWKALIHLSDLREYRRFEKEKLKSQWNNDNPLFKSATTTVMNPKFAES

[2] = molecular target: T1, Intercellular adhesion molecule (ICAM-1), Integrin alpha-L/beta-2; assay: Effective concentration to measure the adherence of LFA-1 expressing JY8 cells to immobilized ICAM-1 in cell-based adhesion assay
[3] = molecular target: T2, Intercellular adhesion molecule (ICAM-1), Integrin alpha-L/beta-2 (Homo sapiens) (UniProt P20701+P05362+P05107); assay: Inhibitory activity against ICAM-1/integrin LFA-1 binding complex at 1 uM concentration; format: protein-complex assay
[4] = molecular target: T2, Intercellular adhesion molecule (ICAM-1), Integrin alpha-L/beta-2 (Homo sapiens); assay: Inhibitory activity against ICAM-1/integrin LFA-1 binding complex at 20 uM concentration; format: protein-complex assay

Row | SMILES | IC50 [1] | also measured
1 | CC(C)c1ccccc1Sc1ccc(-c2cc(N3CCCC(C(=O)O)C3)ncn2)cc1C(F)(F)F (stereo unspecified) | 120 nM | EC50 [2]: 90 nM
2 | CC(C)c1ccccc1Sc1ccc(-c2ccnc(N3CCN(C)CC3)c2)cc1C(F)(F)F |  | inhibition [3]: 58%
3 | CCCN1CCN(c2cc(-c3ccc(Sc4ccc5c(c4)OCCO5)c(C(F)(F)F)c3)ccn2)CC1 | 747 nM | 
4 | COc1ccccc1Sc1ccc(-c2ccnc(N3CC[C@@H](O)C3)c2)cc1C(F)(F)F | 77 nM | 
5 | CC(C)c1ccccc1Sc1ccc(-c2csc(N3CCCCC3)n2)cc1C(F)(F)F |  | inhibition [4]: 40%
6 | CC(C)c1ccccc1Sc1ccc(-c2cc(N3CCCC(c4nn[nH]n4)C3)ncn2)cc1C(F)(F)F (stereo unspecified) | 51 nM | EC50 [2]: 20 nM
7 | CC(C)c1ccccc1Sc1ccc(-c2ccnc(N3CCC(C(=O)O)CC3)c2)cc1C(F)(F)F | 42 nM and 50 nM | 
8 | CC(C)c1ccccc1Sc1ccc(-c2cc(N3CCCC3CO)ncn2)cc1C(F)(F)F (stereo in doubt) | 480 nM | 
9 | CC(C)c1ccccc1Sc1ccc(-c2cc(N3CCOCC3)ncn2)cc1C(F)(F)F | 80 nM and 320 nM | 
10 | OCC1CCN(c2cc(-c3ccc(Sc4ccc5c(c4)OCCO5)c(C(F)(F)F)c3)ccn2)CC1 | 390 nM | 
11 | CC(C)c1ccccc1Sc1ccc(-c2ccnc(N3CCN(c4ccccn4)CC3)c2)cc1C(F)(F)F |  | inhibition [3]: 40%
12 | OC[C@H]1CCCN1c1cc(-c2ccc(Sc3ccc4c(c3)OCCO4)c(C(F)(F)F)c2)ccn1 | 510 nM | 
13 | CC(C)c1ccccc1Sc1ccc(-c2ccnc(N3CCCC(C(=O)O)C3)c2)cc1C(F)(F)F (stereo in doubt; 16k) | 43 nM | 
14 | CC(=O)N1CCCN(c2cc(-c3ccc(Sc4ccc5c(c4)OCCO5)c(C(F)(F)F)c3)ccn2)CC1 | 365 nM | 
15 | CC(C)c1ccccc1Sc1ccc(-c2ccnc(N3CCN(C4CCCCC4)CC3)c2)cc1C(F)(F)F |  | inhibition [3]: 21%
16 | CC(C)c1ccccc1Sc1ccc(-c2ccnc(N3CCN(c4cnccn4)CC3)c2)cc1C(F)(F)F |  | inhibition [3]: 82%
17 | COc1ccccc1Sc1ccc(-c2ccnc(N3CCC(CCO)CC3)c2)cc1C(F)(F)F | 111 nM | 
18 | COc1ccccc1Sc1ccc(-c2ccnc(N3CCC[C@H]3C(=O)O)c2)cc1C(F)(F)F | 80 nM | 
19 | CCOC(=O)CN1CCN(c2cc(-c3ccc(Sc4ccccc4C(C)C)c(C(F)(F)F)c3)ncn2)CC1 | 420 nM | 
20 | CCCC1CCN(c2cc(-c3ccc(Sc4ccccc4C(C)C)c(C(F)(F)F)c3)ccn2)CC1 |  | inhibition [3]: 8%

Row | SMILES | IC50 [1] | also measured
21 | O=C(O)C1CCN(c2cc(-c3ccc(Sc4ccc5c(c4)OCCO5)c(C(F)(F)F)c3)ccn2)CC1 | 71 nM and 50 nM | 
22 | CC(C)c1ccccc1Sc1ccc(-c2ccnc(N3CCCC(C(=O)O)C3)c2)cc1C(F)(F)F (stereo in doubt) | 30 nM | 
23 | CC(C)c1ccccc1Sc1ccc(-c2ccnc(N3CCCC3)c2)cc1C(F)(F)F | 250 nM | 
24 | COc1ccccc1Sc1ccc(-c2ccnc(N3CCC(O)CC3)c2)cc1C(F)(F)F | 128 nM | 
25 | CC(=O)N1CCN(c2cc(-c3ccc(Sc4ccccc4C(C)C)c(C(F)(F)F)c3)ccn2)CC1 | 93 nM and 60 nM | 
26 | CC(=O)N(C)[C@@H]1CCN(c2cc(-c3ccc(Sc4ccccc4C(C)C)c(C(F)(F)F)c3)ccn2)C1 | 112 nM | 
27 | COc1ccccc1Sc1ccc(-c2ccnc(N3CCCN(C(C)=O)CC3)c2)cc1C(F)(F)F | 168 nM | 
28 | CC(C)c1ccccc1Sc1ccc(-c2ccnc(N3CCC(c4nnn[nH]4)CC3)c2)cc1C(F)(F)F | 51 nM | 
29 | CC(=O)NC1CCN(c2cc(-c3ccc(Sc4ccccc4C(C)C)c(C(F)(F)F)c3)ncn2)C1 (stereo unspecified) | 220 nM | 
30 | CC1CCN(c2cc(-c3ccc(Sc4ccccc4C(C)C)c(C(F)(F)F)c3)ccn2)CC1 |  | inhibition [3]: 40%
31 | CC(C)c1ccccc1Sc1ccc(-c2ccnc(N3CC[C@@H](O)[C@H](C(=O)O)C3)c2)cc1C(F)(F)F | 43 nM | 
32 | NC(=O)C1CCN(c2cc(-c3ccc(Sc4ccc5c(c4)OCCO5)c(C(F)(F)F)c3)ccn2)CC1 | 140 nM | 
33 | COc1ccccc1Sc1ccc(-c2ccnc(N3CC[C@@H](NC(C)=O)C3)c2)cc1C(F)(F)F | 88 nM | 
34 | CC(=O)N(C)[C@@H]1CCN(c2cc(-c3ccc(Sc4ccc5c(c4)OCCO5)c(C(F)(F)F)c3)ccn2)C1 | 168 nM | 
35 | O=CN1CCN(c2cc(-c3ccc(Sc4ccc5c(c4)OCCO5)c(C(F)(F)F)c3)ccn2)CC1 | 351 nM | 
36 | CC(C)c1ccccc1Sc1ccc(-c2ccnc(N3CCC(CO)CC3)c2)cc1C(F)(F)F | 160 nM | 
37 | CC(C)c1ccccc1Sc1ccc(-c2ccnc(N3CCC(O)C3)c2)cc1C(F)(F)F (stereo unspecified) | 93 nM | 
38 | CCN1CCN(c2cc(-c3ccc(Sc4ccccc4C(C)C)c(C(F)(F)F)c3)ccn2)CC1 |  | inhibition [3]: 54%
39 | COc1ccccc1Sc1ccc(-c2ccnc(N3CCC(CO)CC3)c2)cc1C(F)(F)F | 80 nM | 
40 | CC(C)c1ccccc1Sc1ccc(-c2csc(NCCN3CCOCC3)n2)cc1C(F)(F)F | 12000 nM | 

Row | SMILES | IC50 [1] | also measured
41 | COc1ccccc1Sc1ccc(-c2ccnc(N3C[C@H](O)C[C@H]3C(=O)O)c2)cc1C(F)(F)F | 214 nM | 
42 | CC(C)c1ccccc1Sc1ccc(-c2ccnc(N3C[C@H](O)C[C@H]3C(=O)O)c2)cc1C(F)(F)F | 90 nM | 
43 | CC(=O)N1CCN(c2cc(-c3ccc(Sc4ccccc4C(C)C)c(C(F)(F)F)c3)ncn2)CC1 | 60 nM and 200 nM | 
44 | CC(C)c1ccccc1Sc1ccc(-c2cc(N3CCC(C(=O)O)CC3)ncn2)cc1C(F)(F)F | 120 nM | 
45 | CC1CN(c2cc(-c3ccc(Sc4ccccc4C(C)C)c(C(F)(F)F)c3)ncn2)CC(C)O1 (stereo unspecified) | 490 nM | 
46 | Cc1ccc(C)c(N2CCN(c3cc(-c4ccc(Sc5ccccc5C(C)C)c(C(F)(F)F)c4)ccn3)CC2)c1 |  | inhibition [3]: 0%
47 | COc1ccccc1Sc1ccc(-c2ccnc(N3CCC(C(N)=O)CC3)c2)cc1C(F)(F)F | 140 nM | 
48 | O=C(O)[C@@H]1C[C@@H](O)CN1c1cc(-c2ccc(Sc3ccc4c(c3)OCCO4)c(C(F)(F)F)c2)ccn1 | 192 nM | 
49 | OC1CCN(c2cc(-c3ccc(Sc4ccc5c(c4)OCCO5)c(C(F)(F)F)c3)ccn2)CC1 | 300 nM | 
50 | CC(C)c1ccccc1Sc1ccc(-c2cc(N3CCC(C(N)=O)CC3)ncn2)cc1C(F)(F)F | 230 nM | 
51 | CC(C)c1ccccc1Sc1ccc(-c2ccnc(N3CCC[C@H]3CO)c2)cc1C(F)(F)F (stereo in doubt; 16x) | 264 nM | 
52 | CC(C)c1ccccc1Sc1ccc(-c2cc(N(C)C(C)C)ncn2)cc1C(F)(F)F | 740 nM | 
53 | CC(C)c1ccccc1Sc1ccc(-c2ccnc(N3CCC[C@H]3CO)c2)cc1C(F)(F)F (stereo in doubt) | 480 nM | 
54 | O[C@@H]1CCN(c2cc(-c3ccc(Sc4ccc5c(c4)OCCO5)c(C(F)(F)F)c3)ccn2)C1 | 126 nM | 
55 | COc1ccccc1Sc1ccc(-c2ccnc(N3CCC[C@@H]3CO)c2)cc1C(F)(F)F | 331 nM | 
56 | CC(C)c1ccccc1Sc1ccc(-c2ccnc(N3CCCC(C)(C)C3)c2)cc1C(F)(F)F |  | inhibition [3]: 22%
57 | COc1ccccc1Sc1ccc(-c2ccnc(N3CCC(C(=O)O)CC3)c2)cc1C(F)(F)F | 113 nM | 
58 | CC(C)c1ccccc1Sc1ccc(-c2ccnc(N3CCCCCC3)c2)cc1C(F)(F)F |  | inhibition [3]: 34%
59 | CC(C)c1ccccc1Sc1ccc(-c2ccnc(N3CCCCC3)c2)cc1C(F)(F)F | 1000 nM | 
